≈ marks a conversion by molar mass, not a printed value. Calls of active or inactive are those of the source. The calls are words filed in the database; no cut-off is given here.
What was measured:
[1] = Solubility of the compound at pH 7.4; format: physicochemical; details: buffer
Aurora kinase B = Aurora kinase B (Homo sapiens, UniProt Q96GD4); assay: Inhibition of Aurora B (unknown origin) by FRET-based homogenous assay
Cytochrome P450 3A4 [2] = target: T1, Cytochrome P450 3A4 (Homo sapiens, UniProt P08684); assay: Inhibition of CYP3A4 in supersomes (unknown origin) using Dibenzylfluorescein as substrate after 10 mins; format: ADME
T1 sequence (P08684 whole entry): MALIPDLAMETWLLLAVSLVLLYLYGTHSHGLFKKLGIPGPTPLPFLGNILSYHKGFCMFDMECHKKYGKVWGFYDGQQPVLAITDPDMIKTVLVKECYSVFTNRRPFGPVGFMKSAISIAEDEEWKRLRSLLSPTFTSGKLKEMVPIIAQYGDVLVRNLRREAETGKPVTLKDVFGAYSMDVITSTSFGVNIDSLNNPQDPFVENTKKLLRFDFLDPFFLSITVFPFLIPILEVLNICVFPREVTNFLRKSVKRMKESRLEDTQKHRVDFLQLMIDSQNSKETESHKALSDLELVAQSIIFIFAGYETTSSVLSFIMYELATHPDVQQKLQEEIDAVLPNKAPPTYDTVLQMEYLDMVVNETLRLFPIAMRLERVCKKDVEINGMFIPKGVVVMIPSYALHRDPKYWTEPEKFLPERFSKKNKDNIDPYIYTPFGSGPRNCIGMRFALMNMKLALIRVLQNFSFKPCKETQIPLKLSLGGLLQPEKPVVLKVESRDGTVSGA

[3] = target: Serine/threonine-protein kinase Chk2 (Homo sapiens, UniProt O96017); assay: Inhibition of CHK2 (unknown origin) by FRET-based homogenous assay
Chain of Serine/threonine-protein kinase Chk2 (O96017 whole entry): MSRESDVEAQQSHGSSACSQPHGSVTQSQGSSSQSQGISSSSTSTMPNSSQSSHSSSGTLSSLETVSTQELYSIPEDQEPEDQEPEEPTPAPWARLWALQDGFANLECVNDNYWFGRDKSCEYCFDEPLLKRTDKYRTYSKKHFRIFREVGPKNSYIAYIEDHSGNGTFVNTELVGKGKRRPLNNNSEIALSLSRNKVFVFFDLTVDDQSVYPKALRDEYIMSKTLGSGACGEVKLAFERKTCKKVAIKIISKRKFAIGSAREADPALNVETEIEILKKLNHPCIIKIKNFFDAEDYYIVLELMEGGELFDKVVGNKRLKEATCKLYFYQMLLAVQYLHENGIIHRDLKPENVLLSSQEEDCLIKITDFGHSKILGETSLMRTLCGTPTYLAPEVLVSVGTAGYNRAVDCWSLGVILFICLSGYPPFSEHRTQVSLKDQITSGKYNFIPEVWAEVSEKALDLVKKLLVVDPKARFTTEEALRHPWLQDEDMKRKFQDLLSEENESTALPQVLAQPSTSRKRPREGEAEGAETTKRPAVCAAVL

A549 = assay: Growth inhibition of human A549 cells after 5 days by SRB assay; format: functional; details: A549, 120 h
[4] = target: T2, Dual specificity protein kinase TTK (Homo sapiens, UniProt P33981); assay: Inhibition of TTK in human HCT116 cells assessed as phosphorylation of histone H3 at Ser10 residue after 4 hrs by immunoassay; format: cell-based, HCT-116
T2 sequence (P33981 whole entry): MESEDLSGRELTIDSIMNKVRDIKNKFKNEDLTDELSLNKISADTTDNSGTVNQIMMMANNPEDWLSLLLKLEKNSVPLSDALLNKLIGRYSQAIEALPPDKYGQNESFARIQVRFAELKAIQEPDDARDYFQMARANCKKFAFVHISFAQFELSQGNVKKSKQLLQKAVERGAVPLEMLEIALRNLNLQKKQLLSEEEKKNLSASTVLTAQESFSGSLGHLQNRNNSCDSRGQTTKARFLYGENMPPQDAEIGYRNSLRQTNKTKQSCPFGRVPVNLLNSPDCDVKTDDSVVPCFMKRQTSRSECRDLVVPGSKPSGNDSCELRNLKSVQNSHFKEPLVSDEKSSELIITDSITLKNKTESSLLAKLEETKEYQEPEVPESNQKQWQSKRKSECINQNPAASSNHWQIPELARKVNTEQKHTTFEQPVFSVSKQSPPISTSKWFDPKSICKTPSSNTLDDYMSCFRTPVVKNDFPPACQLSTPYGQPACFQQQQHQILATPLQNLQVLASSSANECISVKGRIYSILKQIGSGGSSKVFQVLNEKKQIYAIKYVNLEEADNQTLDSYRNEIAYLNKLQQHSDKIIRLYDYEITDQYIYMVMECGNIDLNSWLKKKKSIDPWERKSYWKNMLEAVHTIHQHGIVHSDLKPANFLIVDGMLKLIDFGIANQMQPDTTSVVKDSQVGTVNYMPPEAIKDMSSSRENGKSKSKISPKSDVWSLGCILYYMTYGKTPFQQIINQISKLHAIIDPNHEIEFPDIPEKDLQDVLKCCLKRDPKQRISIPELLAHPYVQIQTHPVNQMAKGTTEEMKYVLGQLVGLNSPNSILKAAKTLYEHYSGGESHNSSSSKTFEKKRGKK

[5] = target: T2, Dual specificity protein kinase TTK; assay: Inhibition of SUMO-tagged human TTK (1-275 residues) compound pre-incubated for 15 mins prior ATP addition by MBP-based assay
Cytochrome P450 2C19 = Cytochrome P450 2C19 (Homo sapiens, UniProt P33261); assay: Inhibition of CYP2C19 in supersomes (unknown origin) using MFC as substrate after 30 mins; format: ADME
Chain of Cytochrome P450 2C19 (P33261 whole entry): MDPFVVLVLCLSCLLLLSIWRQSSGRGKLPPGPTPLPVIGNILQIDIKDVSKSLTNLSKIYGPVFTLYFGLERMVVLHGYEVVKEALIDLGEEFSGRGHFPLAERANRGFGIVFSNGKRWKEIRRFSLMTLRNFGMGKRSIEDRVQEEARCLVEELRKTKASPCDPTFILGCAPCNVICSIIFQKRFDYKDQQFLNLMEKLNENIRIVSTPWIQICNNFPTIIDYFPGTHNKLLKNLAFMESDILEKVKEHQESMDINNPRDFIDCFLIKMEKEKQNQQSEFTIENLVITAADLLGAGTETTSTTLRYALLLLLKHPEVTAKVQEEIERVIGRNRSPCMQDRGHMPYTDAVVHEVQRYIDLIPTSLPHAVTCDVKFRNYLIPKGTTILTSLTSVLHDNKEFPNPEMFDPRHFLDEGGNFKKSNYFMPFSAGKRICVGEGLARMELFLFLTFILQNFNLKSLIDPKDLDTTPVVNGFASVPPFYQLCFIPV

Cytochrome P450 2D6 = Cytochrome P450 2D6 (Homo sapiens, UniProt P10635); assay: Inhibition of CYP2D6 in supersomes (unknown origin) using AMMC as substrate after 30 mins; format: ADME
Chain of Cytochrome P450 2D6 (P10635 whole entry): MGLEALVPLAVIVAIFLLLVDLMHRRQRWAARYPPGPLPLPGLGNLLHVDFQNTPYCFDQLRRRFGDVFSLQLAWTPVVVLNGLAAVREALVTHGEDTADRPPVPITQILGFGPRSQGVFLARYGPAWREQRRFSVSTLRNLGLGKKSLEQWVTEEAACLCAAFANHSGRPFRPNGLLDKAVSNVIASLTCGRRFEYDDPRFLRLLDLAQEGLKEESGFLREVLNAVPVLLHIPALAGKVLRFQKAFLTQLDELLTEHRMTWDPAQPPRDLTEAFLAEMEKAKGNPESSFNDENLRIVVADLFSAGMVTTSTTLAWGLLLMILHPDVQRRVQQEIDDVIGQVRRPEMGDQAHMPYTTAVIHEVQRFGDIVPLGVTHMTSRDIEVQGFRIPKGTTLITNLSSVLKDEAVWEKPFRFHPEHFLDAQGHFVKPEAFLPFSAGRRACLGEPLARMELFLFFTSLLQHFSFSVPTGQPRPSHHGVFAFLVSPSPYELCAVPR

[6] = Growth inhibition of human HCT116 cells after 5 days by SRB assay; format: functional; details: HCT-116, 120 h
[7] = Cell cycle arrest in human HCT116 cells assessed as accumulation at sub-G1 phase at 1 uM after 2 days by flow cytometry; format: functional, cell-based; details: HCT-116
Cytochrome P450 3A4 [8] = target: T1, Cytochrome P450 3A4; assay: Inhibition of CYP3A4 in supersomes (unknown origin) using 7-benzyloxy-4-trifluoromethylcoumarin as substrate after 30 mins; format: ADME
Aurora kinase A = target: T3, Aurora kinase A (Homo sapiens, UniProt O14965); assay: Inhibition of Aurora A (unknown origin) by FRET-based homogenous assay
T3 sequence (O14965 whole entry): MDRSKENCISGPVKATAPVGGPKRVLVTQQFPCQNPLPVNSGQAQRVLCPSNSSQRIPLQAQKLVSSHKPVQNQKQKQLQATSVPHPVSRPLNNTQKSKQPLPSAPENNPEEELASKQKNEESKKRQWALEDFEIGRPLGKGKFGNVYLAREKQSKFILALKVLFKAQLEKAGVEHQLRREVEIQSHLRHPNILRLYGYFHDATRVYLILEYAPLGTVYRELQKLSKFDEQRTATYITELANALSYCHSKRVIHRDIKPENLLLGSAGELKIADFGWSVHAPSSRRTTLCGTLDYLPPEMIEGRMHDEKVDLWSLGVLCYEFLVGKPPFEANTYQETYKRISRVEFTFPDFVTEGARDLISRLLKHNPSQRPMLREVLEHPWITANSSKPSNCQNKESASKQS

Cytochrome P450 1A2 = target: T4, Cytochrome P450 1A2 (Homo sapiens, UniProt P05177); assay: Inhibition of CYP1A2 in supersomes (unknown origin) using CEC as substrate after 30 mins; format: ADME
T4 sequence (P05177 whole entry): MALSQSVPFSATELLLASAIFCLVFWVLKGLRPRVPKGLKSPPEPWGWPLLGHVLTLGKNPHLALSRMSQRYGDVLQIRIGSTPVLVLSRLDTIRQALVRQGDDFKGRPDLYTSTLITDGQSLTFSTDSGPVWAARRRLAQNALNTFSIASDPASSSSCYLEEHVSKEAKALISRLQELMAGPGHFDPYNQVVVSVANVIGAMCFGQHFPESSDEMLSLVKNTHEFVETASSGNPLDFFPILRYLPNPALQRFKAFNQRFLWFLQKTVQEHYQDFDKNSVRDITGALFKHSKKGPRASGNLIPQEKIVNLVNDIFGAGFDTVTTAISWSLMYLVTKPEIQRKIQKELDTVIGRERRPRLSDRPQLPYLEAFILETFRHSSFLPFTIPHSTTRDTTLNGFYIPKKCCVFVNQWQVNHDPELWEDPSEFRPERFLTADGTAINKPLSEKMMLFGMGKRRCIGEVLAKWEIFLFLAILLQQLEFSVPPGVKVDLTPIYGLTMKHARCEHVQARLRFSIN

[9] = target: Serine/threonine-protein kinase PLK1 (Homo sapiens, UniProt P53350); assay: Inhibition of PLK1 (unknown origin) by FRET-based homogenous assay
Chain of Serine/threonine-protein kinase PLK1 (P53350 whole entry): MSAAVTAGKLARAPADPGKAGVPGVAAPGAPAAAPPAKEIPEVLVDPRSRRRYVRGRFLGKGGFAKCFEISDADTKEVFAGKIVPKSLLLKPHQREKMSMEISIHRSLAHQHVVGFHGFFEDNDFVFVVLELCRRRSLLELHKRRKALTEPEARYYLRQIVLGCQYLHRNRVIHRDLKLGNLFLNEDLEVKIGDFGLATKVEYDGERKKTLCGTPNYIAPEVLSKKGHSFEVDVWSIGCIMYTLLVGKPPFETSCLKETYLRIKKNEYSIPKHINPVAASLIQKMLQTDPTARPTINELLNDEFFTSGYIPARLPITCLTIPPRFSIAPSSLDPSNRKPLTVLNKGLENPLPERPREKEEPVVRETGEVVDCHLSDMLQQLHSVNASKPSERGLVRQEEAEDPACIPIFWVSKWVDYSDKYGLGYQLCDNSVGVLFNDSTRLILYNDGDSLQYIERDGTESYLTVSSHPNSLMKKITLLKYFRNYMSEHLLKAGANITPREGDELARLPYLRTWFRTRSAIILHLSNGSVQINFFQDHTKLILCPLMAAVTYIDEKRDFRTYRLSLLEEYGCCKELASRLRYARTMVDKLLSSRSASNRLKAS

[10] = Permeability of the compound at pH 7.4 by PAMPA; format: ADME; details: read-out: permeability
Cytochrome P450 2C9 = Cytochrome P450 2C9 (Homo sapiens, UniProt P11712); assay: Inhibition of CYP2C9 in supersomes (unknown origin) using MFC as substrate after 30 mins; format: ADME
Chain of Cytochrome P450 2C9 (P11712 whole entry): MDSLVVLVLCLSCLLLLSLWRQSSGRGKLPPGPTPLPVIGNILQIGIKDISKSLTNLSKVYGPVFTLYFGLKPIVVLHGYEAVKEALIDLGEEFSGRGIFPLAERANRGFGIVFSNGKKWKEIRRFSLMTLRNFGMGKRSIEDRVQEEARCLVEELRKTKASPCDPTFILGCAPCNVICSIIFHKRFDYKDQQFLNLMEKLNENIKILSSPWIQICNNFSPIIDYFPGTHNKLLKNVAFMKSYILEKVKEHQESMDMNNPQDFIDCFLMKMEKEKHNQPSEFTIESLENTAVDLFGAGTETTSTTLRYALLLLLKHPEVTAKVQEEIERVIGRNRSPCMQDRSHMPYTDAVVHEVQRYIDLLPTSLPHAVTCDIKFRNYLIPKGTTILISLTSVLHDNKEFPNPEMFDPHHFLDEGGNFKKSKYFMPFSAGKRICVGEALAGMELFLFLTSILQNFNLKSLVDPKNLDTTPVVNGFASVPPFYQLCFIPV

Chain of Aurora kinase B (Q96GD4 whole entry): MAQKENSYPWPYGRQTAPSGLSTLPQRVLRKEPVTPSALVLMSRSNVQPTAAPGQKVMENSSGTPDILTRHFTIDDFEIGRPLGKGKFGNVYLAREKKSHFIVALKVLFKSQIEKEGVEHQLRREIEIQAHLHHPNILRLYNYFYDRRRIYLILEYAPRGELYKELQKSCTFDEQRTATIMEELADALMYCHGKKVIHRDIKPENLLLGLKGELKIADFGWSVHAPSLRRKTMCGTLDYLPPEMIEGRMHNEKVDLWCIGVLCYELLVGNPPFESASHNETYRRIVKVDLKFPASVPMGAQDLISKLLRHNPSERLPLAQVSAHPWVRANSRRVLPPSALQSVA

Structure (SMILES) | solubility [1] [µg/mL] | IC50 (Aurora kinase B) [nM] | IC50 (Cytochrome P450 3A4 [2]) [nM] | IC50 [3] [nM] | GI50 (A549) [nM] | EC50 [4] [nM] | IC50 [5] [nM] | IC50 (Cytochrome P450 2C19) [nM] | IC50 (Cytochrome P450 2D6) [nM] | GI50 [6] [nM] | Activity [7] | IC50 (Cytochrome P450 3A4 [8]) [nM] | IC50 (Aurora kinase A) [nM] | IC50 (Cytochrome P450 1A2) [nM] | IC50 [9] [nM] | Papp [10] [×10⁻⁶ cm/s] | IC50 (Cytochrome P450 2C9) [nM]
NS(=O)(=O)c1cccc(-c2n[nH]c3ccc(NC(=O)C(c4ccsc4)N4CCCC4)cc23)c1 (racemic) | 9 (≈ 18.7 µM) | 720 | > 1000 | 100 | 90 | 420 | 2.9 | 5300 | 10000 | 70 | Active | 4000 | 900 | > 10000 | > 50000 | 4.2 | 900
CCc1ccccc1C(C(=O)Nc1ccc2[nH]nc(-c3cccc(S(N)(=O)=O)c3)c2c1)N(C)C (racemic) | 1.4 (≈ 2.93 µM) | 480 | 2900 | 420 | 160 | 520 | 3.6 | 2300 | 5000 | 100 | Active | 700 | 400 | > 10000 | > 50000 | 19 | 2500
